From paper PMC12186253, “Grafted Coiled-Coil Peptides as Multivalent Scaffolds for Protein Recognition” (ACS Chemical Biology, 2025)

Columns and labels:
[1] = molecular target: T1, FAM-Ahx-BID/MCL-1 complex (Homo sapiens, UniProt Q07820); test: Fluorescence anisotropy competition assay, FAM-Ahx-BID/MCL-1; format: binding
T1 construct: residues 172 – 327; His6-SUMO (N, cleaved yes); made in house; host or cells: E. coli BL21-Gold (pET28a)
Description: (1 picture or pasted object on this page, not shown here) […]

[2] = CD thermal unfolding of individual components (peptide or protein alone); format: physicochemical; settings: CD at 222 nm, 5-85 °C, 20 °C/h; 25 μM in 20 mM phosphate, 100 mM NaCl, pH 7.4
Description: CD spectroscopy was used to investigate the secondary structures and thermal stabilities of the designed peptides alone and in the presence of MCL-1.
prepared at 200 – 500 µM in deionized water from solid peptides) were diluted into phosphate
buffer (20 mM phosphate, 100 mM NaCl, pH 7.4) to a final concentration of 25 µM for individual
components, and at a 1:1 ratio (final concentration of all components set as 50 µM for
homomeric species and 75 µM for heterodimeric complex with MCL-1, or 1:1:1 ratio) of the
number of binding sites on the coiled-coil peptides to BH3 binding domain on the protein.
Wavelength spectra were collected (average of 5 scans, from 190 – 300 nm) to evaluate
secondary structure of the individual components and the peptide:protein complexes at 20 °C.
Thermal unfolding experiments monitored the α helical minima at 222 nm from 5 – 85 °C with
a heating ramp of 20 °C/h , and Tm was calculated from the mid -point of unfolding transitions.
A background spectrum of the buffer alone was also collected and subtracted from raw sample
ellipticity values during data conversion.
Data were collected on an APP Chirascan CD spectropolarimeter using 1 mm pathlength
quartz cuvettes. Raw ellipticity data w ere converted to mean residue ellipticity (MRE) using
MRE = (([θ]λ – [θ]0) x Mw) / (n x l x c) […]
curves, the fraction folded was calculated with the following equation […]

T1 sequence (Q07820 172-327, one chain of several): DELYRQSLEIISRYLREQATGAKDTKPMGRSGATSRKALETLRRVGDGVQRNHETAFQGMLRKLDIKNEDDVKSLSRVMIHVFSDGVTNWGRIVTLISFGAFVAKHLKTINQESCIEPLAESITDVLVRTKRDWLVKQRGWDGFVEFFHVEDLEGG

Row | Substance | IC50 [1] [µM] | Tm (thermal unfolding midpoint), component alone [2] [°C]
1 | Ac-GEILAIKQEILRIIGDNVAIKQEILNIKQGYG-NH2 [CC-Tri_E1] | 68 ± 16 | –
2 | Ac-GEILALKQEILRLIGDNVALKQEILNLKQGYG-NH2 [CC-Di_E1] | 0.8 ± 0.1 | –
3 | Ac-GELLAIKQELLRIIGDLVAIKQELLNIKQGYG-NH2 [CC-Tet_E1] | 7.4 ± 0.8 | –
4 | MCL-1: α-helix-binding antiapoptotic target protein, residues 172 – 327, expressed in E. coli | – | 62
